Test results: BigSolDB 2.1

Q: What does the source list for `C[C@@H]1O[C@@H](O[C@H]2[C@H](Oc3cc(O)c(C(=O)CCc4ccc(O)cc4)c(O)c3)O[C@H](CO)[C@@H](O)[C@@H]2O)[C@H](O)[C@H](O)[C@H]1O`?
A: solubility (mole fraction) (in ethyl acetate, 298.15 K): 0.00031; solubility (mole fraction) (in ethyl acetate, 308.15 K): 0.000369; solubility (mole fraction) (in ethyl acetate, 318.15 K): 0.000491; solubility (mole fraction) (in ethyl acetate, 328.15 K): 0.000668; solubility (mole fraction) (in ethyl acetate, 338.15 K): 0.000776; solubility (mole fraction) (in water, 298.15 K): 2.13e-05; solubility (mole fraction) (in water, 308.15 K): 3.78e-05; solubility (mole fraction) (in water, 318.15 K): 7.12e-05; solubility (mole fraction) (in water, 328.15 K): 0.000166; solubility (mole fraction) (in water, 338.15 K): 0.000375
